Key:
[1] = test system: MAP4K2 (Homo sapiens); experiment: Inhibition of GCK in human NCI-H929 cells at 10 uM by mass spectroscopic analysis relative to control
[2] = biological target: T1, Tyrosine-protein kinase Mer (Homo sapiens) (UniProt Q12866); experiment: Inhibition of MER in human NCI-H929 cells at 10 uM by mass spectroscopic analysis relative to control; type: cell-based
T1 sequence (whole entry): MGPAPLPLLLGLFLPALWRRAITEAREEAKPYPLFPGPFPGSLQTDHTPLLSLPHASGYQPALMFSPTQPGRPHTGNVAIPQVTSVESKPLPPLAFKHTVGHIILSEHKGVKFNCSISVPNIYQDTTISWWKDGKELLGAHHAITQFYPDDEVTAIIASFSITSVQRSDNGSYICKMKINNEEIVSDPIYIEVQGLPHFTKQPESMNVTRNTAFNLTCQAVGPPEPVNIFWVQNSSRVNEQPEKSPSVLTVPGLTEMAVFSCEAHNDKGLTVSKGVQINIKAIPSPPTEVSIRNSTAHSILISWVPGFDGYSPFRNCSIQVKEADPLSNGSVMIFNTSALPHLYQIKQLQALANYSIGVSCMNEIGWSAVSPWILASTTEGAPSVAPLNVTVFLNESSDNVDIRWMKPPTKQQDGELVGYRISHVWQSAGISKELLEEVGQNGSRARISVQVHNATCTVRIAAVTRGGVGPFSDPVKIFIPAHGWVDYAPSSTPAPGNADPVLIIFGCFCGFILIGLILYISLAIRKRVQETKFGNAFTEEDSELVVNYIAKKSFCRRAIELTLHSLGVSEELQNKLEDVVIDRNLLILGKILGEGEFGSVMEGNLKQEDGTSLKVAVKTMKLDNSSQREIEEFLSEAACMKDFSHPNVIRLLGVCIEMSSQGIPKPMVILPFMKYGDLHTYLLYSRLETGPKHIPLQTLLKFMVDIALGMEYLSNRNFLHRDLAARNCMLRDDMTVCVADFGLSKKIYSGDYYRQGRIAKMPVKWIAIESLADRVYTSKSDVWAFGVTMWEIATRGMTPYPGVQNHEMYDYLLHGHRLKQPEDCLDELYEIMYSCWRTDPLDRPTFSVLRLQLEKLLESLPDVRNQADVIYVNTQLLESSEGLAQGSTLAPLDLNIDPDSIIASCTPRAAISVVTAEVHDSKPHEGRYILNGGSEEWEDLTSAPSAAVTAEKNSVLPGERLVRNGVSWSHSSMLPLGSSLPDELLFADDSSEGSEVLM

[3] = biological target: T2, NUAK family SNF1-like kinase 1 (Homo sapiens) (UniProt O60285); experiment: Inhibition of NuaK1 in human NCI-H929 cells at 10 uM by mass spectroscopic analysis relative to control; type: cell-based
T2 sequence (whole entry): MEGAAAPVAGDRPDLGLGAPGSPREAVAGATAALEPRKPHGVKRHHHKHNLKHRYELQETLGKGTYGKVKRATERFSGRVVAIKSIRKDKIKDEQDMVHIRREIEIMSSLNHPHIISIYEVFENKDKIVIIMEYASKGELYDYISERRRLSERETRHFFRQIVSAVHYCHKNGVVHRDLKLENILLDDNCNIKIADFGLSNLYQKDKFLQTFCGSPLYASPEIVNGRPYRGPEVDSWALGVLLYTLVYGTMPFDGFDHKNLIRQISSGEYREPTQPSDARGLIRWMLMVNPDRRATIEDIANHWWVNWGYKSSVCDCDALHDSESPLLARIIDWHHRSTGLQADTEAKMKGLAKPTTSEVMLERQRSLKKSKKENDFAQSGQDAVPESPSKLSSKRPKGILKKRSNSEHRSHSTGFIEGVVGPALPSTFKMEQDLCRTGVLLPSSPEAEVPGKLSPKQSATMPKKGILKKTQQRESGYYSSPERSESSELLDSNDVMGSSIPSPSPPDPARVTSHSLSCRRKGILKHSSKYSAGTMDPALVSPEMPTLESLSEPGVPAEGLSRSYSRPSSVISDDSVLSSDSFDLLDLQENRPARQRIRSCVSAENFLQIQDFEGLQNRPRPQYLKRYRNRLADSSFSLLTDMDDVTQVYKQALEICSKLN

[4] = biological target: Serine/threonine-protein kinase MARK1 (Homo sapiens) (UniProt Q9P0L2); experiment: Inhibition of MARK1 in human NCI-H929 cells at 10 uM by mass spectroscopic analysis relative to control; type: cell-based
[5] = biological target: Serine/threonine-protein kinase 26 (Homo sapiens) (UniProt Q9P289); experiment: Inhibition of MST4 in human NCI-H929 cells at 10 uM by mass spectroscopic analysis relative to control; type: cell-based
[6] = biological target: 5'-AMP-activated protein kinase catalytic subunit alpha-2 (Homo sapiens) (UniProt P54646); experiment: Inhibition of AMPKa2 in human NCI-H929 cells at 10 uM by mass spectroscopic analysis relative to control; type: cell-based
[7] = biological target: T3, Aurora kinase C (Homo sapiens) (UniProt Q9UQB9); experiment: Inhibition of AURC in human NCI-H929 cells at 10 uM by mass spectroscopic analysis relative to control; type: cell-based
T3 sequence (whole entry): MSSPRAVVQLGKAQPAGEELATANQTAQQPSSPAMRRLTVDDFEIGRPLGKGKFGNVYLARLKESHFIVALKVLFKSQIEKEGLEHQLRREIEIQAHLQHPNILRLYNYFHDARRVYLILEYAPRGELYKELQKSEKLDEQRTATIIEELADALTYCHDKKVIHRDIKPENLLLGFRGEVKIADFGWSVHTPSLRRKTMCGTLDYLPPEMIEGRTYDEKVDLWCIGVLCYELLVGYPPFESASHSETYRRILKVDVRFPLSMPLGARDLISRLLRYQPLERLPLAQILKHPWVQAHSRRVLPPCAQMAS

Sequence of 5'-AMP-activated protein kinase catalytic subunit alpha-2 (Homo sapiens) (P54646 whole entry, looked up): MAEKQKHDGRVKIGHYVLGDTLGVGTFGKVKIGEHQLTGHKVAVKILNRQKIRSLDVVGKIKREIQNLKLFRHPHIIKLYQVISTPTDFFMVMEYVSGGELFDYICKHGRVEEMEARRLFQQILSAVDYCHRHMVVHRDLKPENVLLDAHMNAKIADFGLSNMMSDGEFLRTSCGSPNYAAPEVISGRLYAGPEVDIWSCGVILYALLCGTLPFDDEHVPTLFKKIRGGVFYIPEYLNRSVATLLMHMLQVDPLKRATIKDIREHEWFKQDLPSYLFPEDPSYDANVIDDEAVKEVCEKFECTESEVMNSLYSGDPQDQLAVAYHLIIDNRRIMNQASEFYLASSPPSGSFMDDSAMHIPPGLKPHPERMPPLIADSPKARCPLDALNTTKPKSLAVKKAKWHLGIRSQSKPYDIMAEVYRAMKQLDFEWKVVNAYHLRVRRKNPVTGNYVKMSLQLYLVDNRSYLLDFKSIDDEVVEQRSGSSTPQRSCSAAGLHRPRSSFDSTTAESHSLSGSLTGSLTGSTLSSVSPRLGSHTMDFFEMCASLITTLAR
Sequence of Serine/threonine-protein kinase MARK1 (Homo sapiens) (Q9P0L2 whole entry, looked up): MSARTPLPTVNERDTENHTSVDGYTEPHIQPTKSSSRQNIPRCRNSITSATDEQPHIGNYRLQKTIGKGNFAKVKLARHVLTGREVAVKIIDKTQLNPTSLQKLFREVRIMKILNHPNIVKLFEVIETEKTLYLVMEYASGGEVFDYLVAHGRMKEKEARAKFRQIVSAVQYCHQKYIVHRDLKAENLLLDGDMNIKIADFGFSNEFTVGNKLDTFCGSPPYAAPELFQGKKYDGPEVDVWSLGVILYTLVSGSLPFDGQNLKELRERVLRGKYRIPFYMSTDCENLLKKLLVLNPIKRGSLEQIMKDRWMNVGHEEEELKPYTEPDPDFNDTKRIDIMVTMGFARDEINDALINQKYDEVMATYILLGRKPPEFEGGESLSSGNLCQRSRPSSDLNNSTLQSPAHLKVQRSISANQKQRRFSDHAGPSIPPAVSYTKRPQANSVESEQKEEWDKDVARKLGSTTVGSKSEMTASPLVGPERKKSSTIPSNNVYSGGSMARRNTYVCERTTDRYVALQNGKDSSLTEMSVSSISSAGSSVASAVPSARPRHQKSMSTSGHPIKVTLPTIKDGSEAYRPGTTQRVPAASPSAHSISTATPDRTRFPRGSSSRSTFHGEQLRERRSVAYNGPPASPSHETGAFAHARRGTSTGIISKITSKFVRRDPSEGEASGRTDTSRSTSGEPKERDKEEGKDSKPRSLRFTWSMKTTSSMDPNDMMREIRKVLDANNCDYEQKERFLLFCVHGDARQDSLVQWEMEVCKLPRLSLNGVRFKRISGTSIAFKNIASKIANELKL
Sequence of Serine/threonine-protein kinase 26 (Homo sapiens) (Q9P289 2-416 limits assumed): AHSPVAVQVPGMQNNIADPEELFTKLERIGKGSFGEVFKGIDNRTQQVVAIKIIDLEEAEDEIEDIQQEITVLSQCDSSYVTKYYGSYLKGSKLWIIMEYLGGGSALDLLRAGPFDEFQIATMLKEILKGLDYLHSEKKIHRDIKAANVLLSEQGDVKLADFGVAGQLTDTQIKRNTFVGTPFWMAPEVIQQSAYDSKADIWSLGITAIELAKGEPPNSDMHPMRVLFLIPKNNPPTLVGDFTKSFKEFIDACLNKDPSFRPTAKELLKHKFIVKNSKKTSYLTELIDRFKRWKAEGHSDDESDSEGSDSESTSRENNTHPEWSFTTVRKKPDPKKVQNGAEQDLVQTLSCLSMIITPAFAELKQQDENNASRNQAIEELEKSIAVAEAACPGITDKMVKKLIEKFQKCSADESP

Compound | inhibition [1] | inhibition [2] | inhibition [3] | inhibition [4] | inhibition [5] | inhibition [6] | inhibition [7]
Nc1ncc(-c2ccc(NS(=O)(=O)C3CC3)cc2OC2CCCCC2)cc1-c1ccc2c(c1)CCNC2=O | > 90% | 0% | 50% | 0% | – | – | –
Nc1ncc(-c2cccc3ncsc23)cc1-c1ccc2c(c1)CCNC2=O | – | – | < 90% | 0% | 0% | 0% | 0%
COc1cc(NS(=O)(=O)C2CC2)ccc1-c1cnc(N)c(-c2ccc3c(c2)CCNC3=O)c1 | 0% | 0% | – | 0% | – | 0% | 0%
CN(C1CC1)S(=O)(=O)c1ccc(-c2cnc(N)c(-c3ccc4c(c3)CCNC4=O)c2)c(F)c1 | – | – | 50% | 0% | < 90% | 0% | 0%
Nc1ncc(-c2cccc([N+](=O)[O-])c2F)cc1-c1ccc2c(c1)CCNC2=O | – | – | – | – | 0% | – | –
Nc1ncc(-c2ccc(NS(=O)(=O)C3CC3)cc2F)cc1-c1ccc2c(c1)CCNC2=O | > 90% | 0% | – | 0% | < 75% | 0% | –
